From ChEMBL document CHEMBL1201862, “PubChem BioAssay data set” (2004)
The source made the active and inactive calls.

Tests used:
[1] = molecular target: T1, Sentrin-specific protease 6 (Homo sapiens, UniProt Q9GZR1); assay type: functional;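 note: Luminescence-based dose-response confirmatory assay of SENP6 inhibition, following up an ultra-high-throughput screen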
T1 sequence (Q9GZR1 whole entry): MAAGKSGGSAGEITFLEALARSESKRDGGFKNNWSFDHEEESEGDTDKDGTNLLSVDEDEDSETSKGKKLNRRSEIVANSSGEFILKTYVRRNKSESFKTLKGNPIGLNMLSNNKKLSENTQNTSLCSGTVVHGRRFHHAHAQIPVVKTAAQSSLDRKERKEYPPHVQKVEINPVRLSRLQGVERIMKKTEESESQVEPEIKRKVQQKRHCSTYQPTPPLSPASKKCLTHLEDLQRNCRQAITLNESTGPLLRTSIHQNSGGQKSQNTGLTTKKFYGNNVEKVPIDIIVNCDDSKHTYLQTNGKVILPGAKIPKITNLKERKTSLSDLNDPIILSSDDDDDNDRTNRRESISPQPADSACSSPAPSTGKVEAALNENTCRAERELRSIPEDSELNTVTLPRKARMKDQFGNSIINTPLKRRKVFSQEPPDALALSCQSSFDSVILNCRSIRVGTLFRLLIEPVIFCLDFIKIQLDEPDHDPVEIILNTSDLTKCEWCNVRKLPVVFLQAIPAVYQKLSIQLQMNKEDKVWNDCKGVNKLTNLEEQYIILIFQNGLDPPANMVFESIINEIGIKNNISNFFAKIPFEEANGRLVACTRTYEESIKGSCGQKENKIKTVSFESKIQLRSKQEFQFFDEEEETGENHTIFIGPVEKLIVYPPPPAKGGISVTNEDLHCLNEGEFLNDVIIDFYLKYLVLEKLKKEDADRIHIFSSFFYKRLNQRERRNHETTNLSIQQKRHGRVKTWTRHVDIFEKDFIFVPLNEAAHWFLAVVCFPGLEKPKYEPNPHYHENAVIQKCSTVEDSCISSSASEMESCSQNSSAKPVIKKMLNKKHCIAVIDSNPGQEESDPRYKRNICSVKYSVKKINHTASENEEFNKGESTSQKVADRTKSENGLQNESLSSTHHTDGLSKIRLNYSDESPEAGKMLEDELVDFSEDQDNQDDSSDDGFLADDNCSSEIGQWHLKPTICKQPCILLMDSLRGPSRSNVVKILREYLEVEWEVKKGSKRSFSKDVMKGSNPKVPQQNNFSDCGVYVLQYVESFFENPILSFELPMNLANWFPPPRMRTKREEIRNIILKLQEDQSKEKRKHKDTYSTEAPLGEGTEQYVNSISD

Streptokinase A = molecular target: T2, Streptokinase A (Streptococcus pyogenes serotype M1, UniProt P10520); experiment: S. pyogenes streptokinase expression inhibitors, potency, dose response, plasminogen activation absorbance, OD405 (AID 1914); assay type: functional, Streptococcus pyogenes M1 GAS;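 note: secreted streptokinase activity via plasminogen activation per viability signal from cell pellet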
T2 sequence (P10520 whole entry): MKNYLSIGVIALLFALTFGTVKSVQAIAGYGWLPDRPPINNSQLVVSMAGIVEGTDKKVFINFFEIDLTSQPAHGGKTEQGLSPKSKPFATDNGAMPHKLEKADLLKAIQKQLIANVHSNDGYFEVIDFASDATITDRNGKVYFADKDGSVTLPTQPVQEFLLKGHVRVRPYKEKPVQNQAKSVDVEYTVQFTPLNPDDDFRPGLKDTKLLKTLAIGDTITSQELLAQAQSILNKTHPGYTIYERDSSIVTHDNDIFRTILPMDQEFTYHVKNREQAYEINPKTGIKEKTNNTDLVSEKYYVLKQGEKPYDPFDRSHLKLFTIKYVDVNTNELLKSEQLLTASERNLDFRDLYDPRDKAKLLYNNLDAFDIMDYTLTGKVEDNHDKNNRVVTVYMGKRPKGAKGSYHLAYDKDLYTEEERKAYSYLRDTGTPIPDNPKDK

[2] = molecular target: T3, Sentrin-specific protease 8 (Homo sapiens, UniProt Q96LD8); assay type: functional;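 note: luminescence read-out of SENP8 inhibition, dose-response confirmation following an ultra-high-throughput screen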
T3 sequence (Q96LD8 whole entry): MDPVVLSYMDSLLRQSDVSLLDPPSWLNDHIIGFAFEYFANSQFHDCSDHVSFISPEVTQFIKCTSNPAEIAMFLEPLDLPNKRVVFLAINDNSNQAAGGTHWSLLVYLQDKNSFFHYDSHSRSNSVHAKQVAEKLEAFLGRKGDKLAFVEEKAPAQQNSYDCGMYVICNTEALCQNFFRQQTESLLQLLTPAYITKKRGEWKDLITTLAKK

[3] = tested on: Streptococcus sp. 'group A'; experiment: growth inhibition of control SK(-) GAS strain, dose response, counter-screen for streptokinase expression inhibitor project, luminescence, kanamycin, BacTiterGlo, confirmation (AID 1900); assay type: functional, organism-based
Caspase-3 = molecular target: T4, Caspase-3 (Homo sapiens, UniProt P42574); assay type: functional;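 note: Dose-response selectivity test against caspase-3 for candidate inhibitors of sentrin-specific proteases (SENPs)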
T4 sequence (P42574 whole entry): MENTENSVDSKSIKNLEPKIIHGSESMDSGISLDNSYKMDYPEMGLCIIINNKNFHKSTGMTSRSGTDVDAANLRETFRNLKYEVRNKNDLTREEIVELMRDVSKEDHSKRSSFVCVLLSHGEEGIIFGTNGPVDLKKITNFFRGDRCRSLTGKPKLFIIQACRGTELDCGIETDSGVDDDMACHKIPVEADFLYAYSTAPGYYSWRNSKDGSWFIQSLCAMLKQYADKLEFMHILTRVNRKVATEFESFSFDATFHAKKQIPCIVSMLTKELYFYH

[4] = molecular target: T5, Sentrin-specific protease 7 (Homo sapiens, UniProt Q9BQF6); assay type: functional;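 note: Luminescence-based dose-response confirmation of ultra-high-throughput screening hits, measuring inhibition of SENP7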
T5 sequence (Q9BQF6 whole entry): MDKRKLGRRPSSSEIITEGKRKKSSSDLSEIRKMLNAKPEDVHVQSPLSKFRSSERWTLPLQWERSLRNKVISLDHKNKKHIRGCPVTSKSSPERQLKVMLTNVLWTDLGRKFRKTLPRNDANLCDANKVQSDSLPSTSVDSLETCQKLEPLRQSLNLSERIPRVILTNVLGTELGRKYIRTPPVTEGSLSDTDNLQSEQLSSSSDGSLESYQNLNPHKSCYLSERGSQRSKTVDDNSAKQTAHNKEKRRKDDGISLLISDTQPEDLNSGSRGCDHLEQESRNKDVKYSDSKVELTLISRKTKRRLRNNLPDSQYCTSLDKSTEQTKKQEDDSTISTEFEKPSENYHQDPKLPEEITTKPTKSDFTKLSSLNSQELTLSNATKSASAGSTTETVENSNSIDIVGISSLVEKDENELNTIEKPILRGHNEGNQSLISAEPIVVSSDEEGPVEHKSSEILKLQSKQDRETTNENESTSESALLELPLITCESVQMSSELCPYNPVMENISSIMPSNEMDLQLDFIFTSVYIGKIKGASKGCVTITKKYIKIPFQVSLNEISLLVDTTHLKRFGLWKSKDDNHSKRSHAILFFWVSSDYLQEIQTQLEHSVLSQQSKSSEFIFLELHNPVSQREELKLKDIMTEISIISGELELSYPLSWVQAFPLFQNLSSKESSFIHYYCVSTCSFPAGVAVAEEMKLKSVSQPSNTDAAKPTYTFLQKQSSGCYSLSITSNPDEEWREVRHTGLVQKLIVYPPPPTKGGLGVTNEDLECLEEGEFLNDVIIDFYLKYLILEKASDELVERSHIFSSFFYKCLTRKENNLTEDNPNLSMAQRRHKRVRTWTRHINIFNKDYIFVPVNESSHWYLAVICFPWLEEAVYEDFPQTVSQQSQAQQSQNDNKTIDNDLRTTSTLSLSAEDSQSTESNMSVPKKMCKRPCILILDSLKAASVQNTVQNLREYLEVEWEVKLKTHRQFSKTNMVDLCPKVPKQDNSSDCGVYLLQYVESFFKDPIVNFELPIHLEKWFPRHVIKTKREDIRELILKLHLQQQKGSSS

Streptococcus = experiment: Group A Streptococcus viability loss, dose response, counter-screen for streptokinase expression inhibitor project, luminescence, BacTiterGlo (AID 1915); assay type: functional, organism-based;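 note: potency for reduction of bacterial viability or growth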
P388 = experiment: cells; assay type: functional; conditions: Mus musculus
P388/ADR = experiment: cells; assay type: functional; conditions: Mus musculus
[5] = molecular target: SWI/SNF-related matrix-associated actin-dependent regulator of chromatin subfamily A member 2 (Homo sapiens, UniProt P51531); experiment: Luminescence-based cell-based high throughput dose response assay to identify activators of the function of SWI/SNF related, matrix associated, actin dependent regulator of chromatin, subfamily a, member 2 (SMARCA2, BRM).; assay type: functional
[6] = Counterscreen for activators of the function of SWI/SNF related, matrix associated, actin dependent regulator of chromatin, subfamily a, member 2 (SMARCA2, BRM): Luminescence-based cell-based high throughput dose response assay to identify non-selective compounds using the VP16 reporter assay.; assay type: functional
[7] = molecular target: T6, DNA repair and recombination protein RAD54-like (Homo sapiens, UniProt Q92698); experiment: inhibitors of human RAD54 branch migration, confirmation, biochemical, fluorescence, cherry-picked samples, dose series (AID 651657); assay type: functional
T6 sequence (Q92698 whole entry): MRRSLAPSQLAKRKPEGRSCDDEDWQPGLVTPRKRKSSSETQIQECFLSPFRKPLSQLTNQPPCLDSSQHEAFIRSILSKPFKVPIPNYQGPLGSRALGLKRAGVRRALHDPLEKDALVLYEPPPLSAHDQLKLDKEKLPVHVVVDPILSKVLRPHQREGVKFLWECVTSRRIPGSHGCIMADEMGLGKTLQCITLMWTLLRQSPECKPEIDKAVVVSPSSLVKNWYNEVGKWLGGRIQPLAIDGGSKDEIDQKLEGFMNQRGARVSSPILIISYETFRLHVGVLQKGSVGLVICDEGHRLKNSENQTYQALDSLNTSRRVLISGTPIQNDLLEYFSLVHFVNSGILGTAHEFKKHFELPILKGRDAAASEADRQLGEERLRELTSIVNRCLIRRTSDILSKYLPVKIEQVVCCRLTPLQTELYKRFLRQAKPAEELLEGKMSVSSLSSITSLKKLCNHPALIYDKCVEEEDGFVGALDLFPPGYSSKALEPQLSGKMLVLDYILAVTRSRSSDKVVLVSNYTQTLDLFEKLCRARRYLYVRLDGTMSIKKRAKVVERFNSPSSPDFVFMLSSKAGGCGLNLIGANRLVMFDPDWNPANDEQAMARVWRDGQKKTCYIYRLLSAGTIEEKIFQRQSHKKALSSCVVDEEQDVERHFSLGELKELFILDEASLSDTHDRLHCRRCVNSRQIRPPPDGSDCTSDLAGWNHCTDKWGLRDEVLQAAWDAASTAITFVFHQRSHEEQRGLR

SN12K1 = experiment: cells; assay type: functional; conditions: Homo sapiens
[8] = ZM109 Env clade C HIV-1 fusion inhibitors, dose response, HeLa effector, CEM target cells, luciferase, cherry-pick (AID 652058); assay type: functional, cell-based
Paired box protein Pax-8 = Paired box protein Pax-8 (Homo sapiens, UniProt Q06710); experiment: inhibitors of PAX8-driven TPO luciferase reporter, dose response, RMG-I cells, cherry-pick (AID 687027); assay type: functional, cell-based;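 note: luciferase reporter driven by Pax8 target thyroperoxidase promoter measured by SteadyGlo luminescence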
[9] = cytotoxicity in OVCAR8 ovarian cancer cells, dose response, PAX8 project, cell-based, plate reader, dry powder samples (AID 743197); assay type: functional; conditions: OVCAR-8
[10] = IGROV1 ovarian cancer cell cytotoxicity, dose response, PAX8 inhibitor project, plate reader, dry powder samples (AID 743043); assay type: functional, cell-based; conditions: IGROV-1
[11] = NIH:OVCAR-3 ovarian cancer cell cytotoxicity, dose response, PAX8 inhibitor project, plate reader, dry powder samples (AID 743044); assay type: functional, cell-based
[12] = non-specific cell cytotoxicity, dose response, cytotoxicity control for PAX8 inhibitor project, plate reader, dry powder samples (AID 743021); assay type: functional, cell-based

Chain of SWI/SNF-related matrix-associated actin-dependent regulator of chromatin subfamily A member 2 (P51531 whole entry): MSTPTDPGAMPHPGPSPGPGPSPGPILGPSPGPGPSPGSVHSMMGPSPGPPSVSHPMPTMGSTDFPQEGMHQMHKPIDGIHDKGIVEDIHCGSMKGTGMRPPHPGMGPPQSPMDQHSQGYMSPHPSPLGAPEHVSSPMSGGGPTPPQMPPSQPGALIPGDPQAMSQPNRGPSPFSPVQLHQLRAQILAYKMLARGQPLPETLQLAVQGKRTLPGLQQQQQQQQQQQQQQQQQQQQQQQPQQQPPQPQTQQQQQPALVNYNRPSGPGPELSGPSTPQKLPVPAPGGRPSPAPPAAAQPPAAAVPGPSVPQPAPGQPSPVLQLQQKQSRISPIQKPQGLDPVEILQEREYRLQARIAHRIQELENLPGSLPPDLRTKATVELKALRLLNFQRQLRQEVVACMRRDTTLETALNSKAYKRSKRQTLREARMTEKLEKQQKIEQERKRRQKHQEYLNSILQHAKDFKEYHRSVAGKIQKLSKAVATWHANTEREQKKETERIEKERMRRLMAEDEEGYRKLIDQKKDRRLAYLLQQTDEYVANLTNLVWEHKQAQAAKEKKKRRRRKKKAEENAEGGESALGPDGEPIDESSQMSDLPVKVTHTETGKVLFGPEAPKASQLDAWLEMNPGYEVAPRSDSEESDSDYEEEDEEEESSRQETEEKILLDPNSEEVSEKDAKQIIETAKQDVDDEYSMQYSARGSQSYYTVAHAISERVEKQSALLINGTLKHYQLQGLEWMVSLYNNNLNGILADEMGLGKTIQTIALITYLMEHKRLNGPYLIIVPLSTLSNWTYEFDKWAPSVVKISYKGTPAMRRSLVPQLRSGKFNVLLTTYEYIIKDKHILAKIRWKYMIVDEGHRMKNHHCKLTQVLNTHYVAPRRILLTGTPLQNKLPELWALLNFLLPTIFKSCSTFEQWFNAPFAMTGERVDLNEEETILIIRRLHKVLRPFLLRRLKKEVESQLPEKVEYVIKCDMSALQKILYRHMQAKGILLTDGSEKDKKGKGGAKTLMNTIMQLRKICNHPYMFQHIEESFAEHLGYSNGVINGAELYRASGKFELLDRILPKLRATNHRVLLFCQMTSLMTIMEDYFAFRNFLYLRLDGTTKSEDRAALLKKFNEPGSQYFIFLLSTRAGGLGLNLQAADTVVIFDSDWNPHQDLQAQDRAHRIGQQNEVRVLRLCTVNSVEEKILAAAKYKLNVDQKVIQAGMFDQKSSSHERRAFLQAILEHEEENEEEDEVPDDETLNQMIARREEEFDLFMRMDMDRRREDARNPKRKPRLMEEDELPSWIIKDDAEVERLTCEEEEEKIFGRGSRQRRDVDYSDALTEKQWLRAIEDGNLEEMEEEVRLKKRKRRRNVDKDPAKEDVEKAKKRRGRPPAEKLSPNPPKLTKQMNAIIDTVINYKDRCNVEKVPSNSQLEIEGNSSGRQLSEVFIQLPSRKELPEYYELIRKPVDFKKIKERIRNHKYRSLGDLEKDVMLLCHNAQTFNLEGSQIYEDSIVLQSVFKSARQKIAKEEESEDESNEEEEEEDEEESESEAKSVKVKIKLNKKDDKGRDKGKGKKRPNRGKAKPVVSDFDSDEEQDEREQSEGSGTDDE
Chain of Paired box protein Pax-8 (Q06710 whole entry): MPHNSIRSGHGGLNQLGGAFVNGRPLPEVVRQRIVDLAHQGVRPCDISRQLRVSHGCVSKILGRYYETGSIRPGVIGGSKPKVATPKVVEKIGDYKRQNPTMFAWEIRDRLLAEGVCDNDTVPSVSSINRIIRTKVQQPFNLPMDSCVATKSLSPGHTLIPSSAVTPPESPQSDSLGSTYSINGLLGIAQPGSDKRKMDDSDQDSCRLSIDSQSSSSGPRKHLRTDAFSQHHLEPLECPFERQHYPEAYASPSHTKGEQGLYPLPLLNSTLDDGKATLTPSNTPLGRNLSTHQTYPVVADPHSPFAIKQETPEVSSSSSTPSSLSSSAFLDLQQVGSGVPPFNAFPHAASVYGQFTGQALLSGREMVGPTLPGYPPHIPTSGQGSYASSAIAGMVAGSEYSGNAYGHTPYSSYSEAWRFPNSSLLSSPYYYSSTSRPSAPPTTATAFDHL

Cc1cccc(Nc2nc(-c3ccc(F)c(C)c3)cs2)n1
IC50 [1]: 24 µM (active) | EC50 (Streptokinase A): > 50 µM (not active) | IC50 [2]: 41.5 µM (active) | EC50 [3]: 8.77 µM (active) | IC50 (Caspase-3): 41.4 µM (active) | IC50 [4]: 5.75 µM (active) | EC50 (Streptococcus): 26.7 µM (active)

CC[C@@]1(O)CC(OC2CC(N3CCOCC3)C(O)C(C)O2)c2c(O)c3c(c(O)c2[C@H]1O)C(=O)c1cccc(O)c1C3=O (some centres undefined)
GI50 (P388): 0.00366 µM (active) | GI50 (P388/ADR): 9.75e-06 µM (active)

Cc1n[nH]c(SCC(=O)N2CCc3ccccc32)n1
EC50 [5]: > 91 µM (inactive) | EC50 [6]: > 91 µM (inactive)

CCOC(=O)c1cnc2ccc(C)cc2c1NCCN1CCOCC1
AC50 [7]: 98.8 µM (active)

Cc1c(/C=C/C(=O)c2ccccc2O)cnn1C
IC50 [1]: 14.2 µM (active) | IC50 [2]: 25.2 µM (active) | IC50 (Caspase-3): 15.3 µM (active) | IC50 [4]: 4.84 µM (active)

OC(CBr)C(O)C(O)C(O)CBr (centres undefined)
GI50 (P388): 3.53 µM (inactive) | GI50 (SN12K1): > 100 µM (inactive) | GI50 (P388/ADR): 5.89 µM (inactive)

CCCCS(=O)(=O)Nc1ccc(Nc2c3ccccc3nc3ccccc23)c(OC)c1
GI50 (P388): < 0.01 µM (active) | GI50 (SN12K1): 1.26 µM (inactive) | GI50 (P388/ADR): 0.255 µM (active)

Nc1nc(O)c2ncn(C3OC(CO)C(O)C3O)c2n1 (centres undefined)
GI50 (P388): 9.73 µM (inactive) | GI50 (SN12K1): 63.2 µM (inactive) | GI50 (P388/ADR): 2.33 µM (inactive)

Clc1ccc(CO/N=C2\CCCc3nonc32)cc1
EC50 [5]: > 91.2 µM (inactive) | EC50 [6]: > 91.2 µM (inactive)

Cc1c(NC(=O)c2ccccc2N)cccc1C(=O)O
IC50 [1]: 9.43 µM (active) | IC50 [2]: 11.4 µM (active) | IC50 (Caspase-3): 38.1 µM (active) | IC50 [4]: 2.73 µM (active)

O=C(Nc1ccc(F)cc1)Nc1ccc2c(c1)[C@@H]1C[C@H](CC(=O)N3CCCCC3)O[C@@H](CO)[C@@H]1O2
AC50 [8]: 35 µM (active)

O=C(c1cccs1)c1coc2ccc(O)cc12
IC50 [1]: 10.6 µM (active) | IC50 [2]: > 100 µM (inactive) | IC50 (Caspase-3): 13.7 µM (active) | IC50 [4]: 7.28 µM (active)

Cc1ccc(S(=O)(=O)Nc2ccc3c(c2)C(=O)N([C@@H](C)CO)C[C@@H](C)[C@H](CN(C)Cc2ccc(C(F)(F)F)cc2)OCCCC[C@@H](C)O3)cc1
AC50 (Paired box protein Pax-8): 8.98 µM (active) | AC50 [9]: > 70 µM (inactive) | AC50 [10]: 36.9 µM (active) | AC50 [11]: 17.9 µM (active) | AC50 [12]: 43 µM (active)

Cc1cc(O)c2c(c1)C(=O)c1c(c(O)cc(O)c1-c1c(O)cc(O)c3c1C(=O)c1cc(C)cc(O)c1C3=O)C2=O [SKYRIN]
GI50 (P388): 8.95 µM (inactive) | GI50 (SN12K1): 9.23 µM (inactive) | GI50 (P388/ADR): 17.9 µM (inactive)
